{"source": "paper PMC9016773", "about": "(Journal of chemical information and modeling, 2022)", "key": {"[1]": {"test_system": "actin filaments underlying the plasma membrane (cortex actin)", "settings": "inhibits HSPG-mediated endocytosis; cited from earlier work"}, "[2]": {"test_system": "cortex actin filaments in U2OS cells", "format": "cell-based"}, "[3]": {"test_system": "SARS-CoV-2 pseudotyped particles", "format": "cell-based", "settings": "read-out: IC50, anti-pseudotyped particle activity"}, "[4]": {"test_system": "HSPG-mediated endocytosis of α-Synuclein fibrils in HEK293T cells", "experiment": "α-Synuclein fibrils uptake assay", "format": "cell-based", "settings": "among the top 10 inhibitors"}, "SARS-CoV-2": {"test_system": "SARS-CoV-2", "settings": "among drugs of the repurposing screen; cited from earlier work"}}, "note": "Entries after “also recorded” stand apart in the source; their conditions may differ."}
{"smiles": "O=C1/C(=C/c2ccccc2)C[C@@]2(O)[C@H]3Cc4ccc(O)c5c4[C@@]2(CCN3CC2CC2)[C@H]1O5", "note": "[BNTX]", "values": [{"measurement": "Disruption of actin filaments underlying the plasma membrane (cortex actin)", "setting": "[1]", "result": "effectively disrupt the actin filaments"}]}
{"smiles": "CC(C)S(=O)(=O)c1oc(-c2ccc(F)cc2)nc1S(=O)(=O)c1ccccc1", "note": "[NCGC00115755-02]", "values": [{"measurement": "Effect on actin filaments (phalloidin-Alexa488 staining)", "setting": "[2]", "result": "dose-dependent disruption of cortex actin filaments; also recorded: causes the disassembly of actin stress fiber and generates large actin aggregates"}, {"measurement": "IC50", "setting": "[3]", "result": 5, "unit": "µM"}]}
{"smiles": "CN(C)CCNC(=O)c1nc(-c2ccc(N3CCN(C)CC3)cc2)cc2c1ccn2C", "note": "[NCGC00411718]", "values": [{"measurement": "Inhibition of the entry of pHrodo-labeled α-Synuclein fibrils (ranking in words)", "setting": "[4]", "result": "highest inhibition"}]}
{"smiles": "O=C(Oc1cccc2cccnc12)c1ccccc1", "note": "[NCGC00159478]", "values": [{"measurement": "Inhibition of the entry of pHrodo-labeled α-Synuclein fibrils (ranking in words)", "setting": "[4]", "result": "highest inhibition"}]}
{"smiles": "O=C1c2c(O)ccc(O)c2C(=O)c2c(NCCNCCO)ccc(NCCNCCO)c21", "note": "[mitoxantrone]", "values": [{"measurement": "Antiviral activity in vitro (in words)", "setting": "SARS-CoV-2", "result": "most potent antiviral activity in vitro"}]}
{"smiles": "CCN(CC)CCNC(=O)c1c(C)[nH]c(/C=C2\\C(=O)Nc3ccc(F)cc32)c1C", "note": "[Sunitinib]", "values": [{"measurement": "Disruption of actin filaments underlying the plasma membrane (cortex actin)", "setting": "[1]", "result": "effectively disrupt the actin filaments"}]}
